# Like-named read-outs stand apart in the source and are kept apart here.
# Legend:
# rat primary hepatocytes [1] = tested on: rat primary hepatocytes
# HepG2 cells [2] = details: cited from earlier work
# rat primary hepatocytes [3] = assay: MMP assay in rat primary hepatocytes; details: for IC50: read-out: MMP assays IC50 (µM) Rat Hepatocytes
# HepG2 cells [4] = assay: cells; details: Homo sapiens; for IC50: HepG2, read-out: MMP assays IC50 (µM) HepG2; for Emax: HepG2, read-out: MMP assays efficacy (%) HepG2
# [5] = read-out: MMP assays IC50 (µM), qHTS-HepG2
# [6] = read-out: MMP assays IC50 (µM) qHTS-HepG2
SMILES,MMP assays efficacy (%) Rat Hepatocytes (rat primary hepatocytes [1]),MMP assays efficacy (%) qHTS-HepG2 (HepG2 cells [2]) [%],IC50 (HepG2 cells [2]; [5]) [µM],MMP assays IC50 (µM) Rat Hepatocytes (rat primary hepatocytes [3]),IC50 (HepG2 cells [4]) [µM],Emax (HepG2 cells [4]) [%],IC50 (HepG2 cells [2]; [6]) [µM],"IC50 (rat primary hepatocytes [3]; Rattus norvegicus, Hepatocyte) [µM]",IC50 (rat primary hepatocytes [3]) [µM]
CCN(CC)C(=O)[C@@H]1C=C2c3cccc4[nH]cc(c34)C[C@H]2N(C)C1 [Lysergide],inactive,-54±2,9.03 ± 1.87,inactive,17.3,48,–,–,–
"CC(C)CC(=O)C1C(=O)c2ccccc2C1=O [2-Isovaleryl-1,3-indanedione]",-107±61%,-99±5,–,–,56.2,108,5.24 ± 0.9,22.2 ± 11.1,–
O=c1c(O)c(-c2ccc(O)c(O)c2)oc2cc(O)cc(O)c12 [Quercetin],-62±28%,-94±8,2.69 ± 2.26,–,3.16,96,–,–,15.1 ± 6.79
Oc1cc(Cl)ccc1Oc1ccc(Cl)cc1Cl [Triclosan],-58±19%,-101±5,1.5 ± 0.88,–,6.15,123,–,15.2 ± 13.5,–
O=[N+]([O-])c1ccc(O/N=C/c2cc(Br)c(O)c(Br)c2)c([N+](=O)[O-])c1 [Bromofenoxim],-114±9%,-108±7,–,–,3.98,100,1.08 ± 0.25,2.18 ± 0.86,–
Nc1ccc2cc3ccccc3cc2c1 [Compound 2-Aminoanthracene],-51±35%,-72±12,–,–,3.55,73,4.71 ± 1.92,0.18 ± 0.2,–
"c1ccc(-c2cccc(-c3ccccc3)c2)cc1 [1,1':3',1''-Terphenyl]",-53±28%,-80±13,–,–,50.1,90,47.9 ± 14.3,29.6 ± 27.7,–
"Nc1ccc(Cl)cc1N [4-Chloro-1,2-diaminobenzene]",-88±17%,-94±12,–,–,2,90,2.38 ± 1.6,11 ± 4.37,–
CCN1/C(=C/C=C/C=C/c2sc3ccccc3[n+]2CC)Sc2ccccc21 [Dithiazanine iodide],-59±11%,-85±6,–,–,0.0275,88,0.1 ± 0.15,0.98 ± 0.16,–
O=S(=O)(Oc1ccc(Cl)cc1)c1ccc(Cl)cc1 [Chlorfenson],-62±24%,-94±17,–,–,44.7,88,38.8 ± 25.4,23.7 ± 17.2,–
Cc1cc(C(F)(C(F)(F)F)C(F)(F)F)ccc1NC(=O)c1cccc(I)c1C(=O)NC(C)(C)CS(C)(=O)=O [Flubendiamide],-80±23%,-87±14,18.7 ± 2.59,–,25.3,94,–,12.8 ± 8.15,–
"Clc1ccc(C(c2ccccc2Cl)C(Cl)Cl)cc1 (stereo not drawn) [o,p'-DDD]",-45±27%,-112±11,19.8 ± 0.94,–,19.4,151,–,24.2 ± 14.7,–
Oc1c(Cl)cc(Cl)c(Cl)c1Cc1c(O)c(Cl)cc(Cl)c1Cl [Hexachlorophene],-103±31%,-101±7,0.7 ± 0.46,–,0.63,115,–,1 ± 0.74,–
S=C=Nc1ccccc1 [Phenyl isothiocyanate],inactive,-103±16,43 ± 14.8,inactive,35.5,134,–,–,–
O=C1CN(/N=C/c2ccc(-c3ccc([N+](=O)[O-])cc3)o2)C(O)=N1 [Dantrolene sodium],-108±32%,-85±8,–,–,3.46,73,4.35 ± 1.73,15.5 ± 1.78,–
"COc1ccc(C(=O)c2ccccc2O)c(O)c1 [2,2'-Dihydroxy-4-methoxybenzophenone]",-47±18%,-98±6,–,–,5.24,103,9.89 ± 1.04,11.1 ± 5.21,–
C[C@]12CC[C@@H]3c4ccc(O)cc4CC[C@H]3[C@@H]1CC[C@H]2O [Compound 17alpha-Estradiol],-64±3%,-106±11,–,–,22.4,105,37.8 ± 13.9,35.5,–

# Reference: publication PMC6112376, “Comprehensive Analyses and Prioritization of Tox21 10K Chemicals Affecting Mitochondrial Function by in-Depth Mechanistic Studies” (Environmental Health Perspectives, 2018)
